The numbers were not newly measured in paper PMC5209880, “Mobilization of hematopoietic stem cells with the novel CXCR4 antagonist POL6326 (balixafortide) in healthy volunteers—results of a dose escalation trial” (Journal of Translational Medicine, 2017), which cites them from elsewhere.

One series concerns CD34+ cells. The settings on record: administered alone (without G-CSF) in healthy donors; cited from earlier work. The text has this:
The ability of CXCR4 antagonists to rapidly dislodge stem cells from the marrow has been recognized for many years. Previously studied compounds were neither universally well tolerated nor very potent. The only currently approved CXCR4 antagonist plerixafor mobilized a median of 16 CD34+ cells per µL when administered alone (without G-CSF) in healthy donors, which is barely sufficient to generate a normal-sized graft in two apheresis sessions. || The comparator agent in our study was G-CSF given in split doses as is routine practice in our center; the rationale is twofold: more efficient mobilization and potentially better tolerability. […] Thus the advantage in efficiency of single-dose G-CSF vs. balixafortide at the doses tested here would be les ...

The subject of series [1] is patients receiving a plerixafor-mobilized graft. The settings on record: recipients of a plerixafor-mobilized graft; cited from earlier work.

In the case of `c1cc(CN2CCCNCCNCCCNCC2)ccc1CN1CCCNCCNCCCNCC1` [plerixafor, reference compound], in the series with CD34+ cells, the “Median CD34+ cells mobilized” value is reported as 16 CD34+ cells per µL. For the same molecule, the “Patients who developed acute GvHD 3° or 4°” value in series [1] is on record as 1/20.
